Source: patent US9695225B2, “Peptide compound for treatment of severe hypoglycemia” (Eli Lilly and Company, priority 2013, dated 2017)
Like-named read-outs stand apart in the source and are kept apart here. Non-standard residues stand in square brackets, D forms with d. Residues, ends and D or L forms follow the SMILES beside them. Aib = CC(C)(N)C(=O)O

Columns and labels:
[1] = Chemical stability by RP-HPLC (% main peak); format: physicochemical; settings: for 4° C. % Main Peak / 30° C. % Main Peak / 40° C. % Main Peak: 4 weeks; for % Main Peak Day 0: RP-HPLC
Experimental: (§1) The compound of SEQ ID NO: 2 is dissolved in H2O to a 10 mg/mL concentration (peptide content), filtered through a 0.22 μm filter (Millex, SLGV004SL), and then diluted to 1 mg/mL in Buffer P5 (10 mM Histidine, 150 mM NaCl in H2O, pH 5.0) or Buffer P6 (10 mM Histidine, 150 mM NaCl in H2O, pH 6.0). Each solution is transferred to three vials and autoclaved. Samples are then maintained at 4° C., 30° C. and 40° C. Samples are visually assessed at different time points for turbidity and phase separation. Stability of the compound is assessed by analytical reverse phase HPLC (RP-HPLC) on a Phenomenex Aeris Widepore, 3.6 μm, XB-C18 4.6×100 mm column (P/NO 00D-4482-E0) heated at 60° C. with a AB (A=0.05% TFA/H2O; B=0.04% TFA/acetonitrile) gradient of 5% B isocratic over 5 min, 5 to 25% B over 20 minutes, 25 to 30% B over 30 min, and 30 to 45% B over 10 min with a flow rate of 1.2 mL/min (wavelength of 220 ηm).
The compound of SEQ ID NO: 2 also maintains chemical stability at pH 5 (Buffer P5) and pH 6 (Buffer P6) when maintained at 4° C., 30° C. and 40° C. for 4 weeks.

[2] = Physical stability test using Thioflavin T binding assay (fibrillation); format: physicochemical; settings: 25° C.; for Thioflavin T fluorescence t = 0 h / Thioflavin T fluorescence t = 40 h / Thioflavin T fluorescence t = 120 h: 1 mg/mL, 300 rpm
Experimental: Fibrillation is a common problem when glucagon is formulated in aqueous solution. To assess the level of fibrillation of the compound of the present invention, a Thioflavin T binding assay is performed.
All samples are mechanically stressed at 25° C. in a magnetic stir plate set at 300 rpm. […] Raw data is collected with Softmax Pro 5.4.1 (Molecular Devices) and imported to Excel.

[3] = format: physicochemical
Experimental: as §1

[4] = test system: C57/Bl6 male mice; assay: Effects on blood glucose levels in C57/Bl6 male mice; format: in vivo; settings: for Blood glucose levels: mean±SEM of 4 mice
Experimental: To determine the effects of the compound of SEQ ID NO: 2 on blood glucose levels, the compound is administered to C57/Bl6 mice. Three month old male C57BL6 mice (Harlan Laboratories) are used Animals are individually housed in a temperature-controlled (24° C.) facility with a 12 hour light/dark cycle, and have free access to food and water. After 1 week acclimation to the facility, mice are randomized to treatment groups (n=4/group). Test compound is formulated in Buffer 2 (see Physical stability test using Thioflavin T binding assay). On the morning of test, food is removed at 08:00 AM. Two hours after food is removed, the test compound is given subcutaneously at 0, 1, 3 or 10 μg/kg doses. Blood glucose is measured at time 0, 15, 30, 60 and 120 minutes after test compound administration with an ACCU-CHECK® (Roche Diagnostics) glucometer. […] Results are expressed as mean±standard error mean (SEM) of 4 mice per group.
Blood glucose levels at 10 μg/kg of compound of SEQ ID NO: 2 is taken as the maximum value.

[5] = Buffer 1 (20 mM Histidine, pH 6.0)
[6] = Buffer 2 (10 mM Histidine, 150 nM NaCl, pH 6.0)
[7] = Buffer 3 (10 mM Histidine, 300 mM sorbitol, pH 6.0)
[8] = Buffer 4 (10 mM Histidine, 0.02% Tween 80, pH 6.0)
[9] = Buffer 5 (10 mM Histidine, 300 mM Arginine, pH 6.0)
[10] = Buffer 6 (10 mM Histidine, 300 mM sucrose, pH 6.0)

CC(C)C[C@H](NC(=O)[C@H](Cc1c[nH]c2ccccc12)NC(=O)[C@H](CCC(=O)O)NC(=O)[C@@H](NC(=O)[C@H](Cc1ccccc1)NC(=O)[C@H](CCC(=O)O)NC(=O)[C@H](CCC(N)=O)NC(=O)[C@H](C)NC(=O)[C@H](CCCCN)NC(=O)[C@H](CCCCN)NC(=O)C(C)(C)NC(=O)[C@H](CC(=O)O)NC(=O)[C@H](CC(C)C)NC(=O)[C@H](Cc1ccc(O)cc1)NC(=O)[C@H](CCCCN)NC(=O)[C@H](CO)NC(=O)[C@H](Cc1ccc(O)cc1)NC(=O)[C@H](CC(=O)O)NC(=O)[C@H](CO)NC(=O)[C@H](CC(C)C)NC(=O)[C@H](Cc1ccccc1)NC(=O)[C@@H](NC(=O)CNC(=O)[C@H](CCC(N)=O)NC(=O)[C@H](C)NC(=O)[C@@H](N)Cc1c[nH]cn1)[C@@H](C)O)C(C)C)C(=O)N[C@@H](CC(C)C)C(=O)N[C@@H](CCCCN)C(=O)N[C@H](C(=O)NCC(=O)N1CCC[C@H]1C(=O)N[C@@H](CO)C(=O)N[C@@H](CO)C(=O)NCC(=O)N[C@@H](C)C(=O)N1CCC[C@H]1C(=O)N1CCC[C@H]1C(=O)N[C@@H](CCCCN)C(=O)N[C@@H](CO)C(=O)N[C@@H](CCCCN)C(N)=O)[C@@H](C)O [SEQ ID NO: 2] (H-HAQGTFLSDYSKYLD[Aib]KKAQEFVEWLLKTGPSSGAPPKSK-NH2)
4° C. % Main Peak ([1]; Buffer P5 (pH 5.0)): 98.01%
30° C. % Main Peak ([1]; Buffer P5 (pH 5.0)): 97.07%
40° C. % Main Peak ([1]; Buffer P5 (pH 5.0)): 92.64%
% Main Peak Day 0 ([1]; Buffer P5 (pH 5.0)): 99.55%
4° C. % Main Peak ([1]; Buffer P6 (pH 6.0)): 98.60%
30° C. % Main Peak ([1]; Buffer P6 (pH 6.0)): 97.71%
40° C. % Main Peak ([1]; Buffer P6 (pH 6.0)): 95.00%
% Main Peak Day 0 ([1]; Buffer P6 (pH 6.0)): 99.02%
main peak changes ([1]; pH 5 (Buffer P5), after 4 weeks at 30° vs. 4° C.): less than 1%
main peak changes ([1]; pH 5 (Buffer P5), after 4 weeks at 40° C. vs. 4° C.): less than 6%
main peak changes ([1]; pH 6 (Buffer P6), after 4 weeks at 30° vs. 4° C.): less than 1%
main peak changes ([1]; pH 6 (Buffer P6), after 4 weeks at 40° C. vs. 4° C.): less than 4%
fibrillation as measured by the Thioflavin T binding assay ([2]; pH 6, mechanical stress): did not demonstrate fibrillation
Thioflavin T fluorescence t = 0 h [2, 5]: 74.6 fluorescence units
Thioflavin T fluorescence t = 40 h [2, 5]: 76.9 fluorescence units
Thioflavin T fluorescence t = 120 h [2, 5]: 89.2 fluorescence units
Thioflavin T fluorescence t = 0 h [2, 6]: 130.1 fluorescence units
Thioflavin T fluorescence t = 120 h [2, 6]: 137.0 fluorescence units
Thioflavin T fluorescence t = 40 h ([2]; Buffer 2 (10 mM Histidine, NaCl, pH 6.0)): 137.3 fluorescence units
Thioflavin T fluorescence t = 0 h [2, 7]: 68.1 fluorescence units
Thioflavin T fluorescence t = 40 h [2, 7]: 71.4 fluorescence units
Thioflavin T fluorescence t = 120 h [2, 7]: 72.4 fluorescence units
Thioflavin T fluorescence t = 0 h [2, 8]: 51.9 fluorescence units
Thioflavin T fluorescence t = 40 h [2, 8]: 56.2 fluorescence units
Thioflavin T fluorescence t = 120 h [2, 8]: 57.4 fluorescence units
Thioflavin T fluorescence t = 0 h [2, 9]: 113.9 fluorescence units
Thioflavin T fluorescence t = 40 h [2, 9]: 120.0 fluorescence units
Thioflavin T fluorescence t = 120 h [2, 9]: 123.2 fluorescence units
Thioflavin T fluorescence t = 0 h [2, 10]: 78.0 fluorescence units
Thioflavin T fluorescence t = 40 h [2, 10]: 74.1 fluorescence units
Thioflavin T fluorescence t = 120 h [2, 10]: 88.9 fluorescence units
solubility by visual assessment and RP-HPLC [3]: maintains good solubility
Physical appearance ([3]; 1 mg/mL, Buffer P5 and P6, over 4 weeks): clear to colorless, with no opalescences and no particles
30° C. vs 4° C. Recovery 4 wk ([3]; Buffer P5 (pH 5.0)): 100%
40° C. vs 4° C. Recovery 4 wk ([3]; Buffer P5 (pH 5.0)): 100%
30° C. vs 4° C. Recovery 4 wk ([3]; Buffer P6 (pH 6.0)): 100%
40° C. vs 4° C. Recovery 4 wk ([3]; Buffer P6 (pH 6.0)): 101%
4° C. Total Peak Area 4 wk ([3]; pH 5): 4933
30° C. Total Peak Area 4 wk ([3]; pH 5): 4932
40° C. Total Peak Area 4 wk ([3]; pH 5): 4932
4° C. Total Peak Area 4 wk ([3]; pH 6): 4918
30° C. Total Peak Area 4 wk ([3]; pH 6): 4911
40° C. Total Peak Area 4 wk ([3]; pH 6): 4960
Blood glucose levels ([4]; 1 μg/kg subcutaneously, 0 minutes): 165.3 ± 16.7 mg/dL
Blood glucose levels ([4]; 1 μg/kg subcutaneously, 15 minutes): 212.0 ± 12.6 mg/dL
Blood glucose levels ([4]; 1 μg/kg subcutaneously, 30 minutes): 203.1 ± 13.1 mg/dL
Blood glucose levels ([4]; 1 μg/kg subcutaneously, 60 minutes): 169.9 ± 10.1 mg/dL
Blood glucose levels ([4]; 1 μg/kg subcutaneously, 120 minutes): 141.0 ± 4.2 mg/dL
Blood glucose levels ([4]; 3 μg/kg subcutaneously, 0 minutes): 148.0 ± 4.6 mg/dL
Blood glucose levels ([4]; 3 μg/kg subcutaneously, 15 minutes): 234.1 ± 9.8 mg/dL
Blood glucose levels ([4]; 3 μg/kg subcutaneously, 30 minutes): 242.1 ± 8.3 mg/dL
Blood glucose levels ([4]; 3 μg/kg subcutaneously, 60 minutes): 169.4 ± 7.3 mg/dL
Blood glucose levels ([4]; 3 μg/kg subcutaneously, 120 minutes): 148.2 ± 10.9 mg/dL
Blood glucose levels ([4]; 10 μg/kg subcutaneously, 0 minutes): 155.4 ± 10.1 mg/dL
Blood glucose levels ([4]; 10 μg/kg subcutaneously, 15 minutes): 270.0 ± 12.7 mg/dL
Blood glucose levels ([4]; 10 μg/kg subcutaneously, 30 minutes): 308.5 ± 2.6 mg/dL
Blood glucose levels ([4]; 10 μg/kg subcutaneously, 60 minutes): 212.4 ± 8.3 mg/dL
Blood glucose levels ([4]; 10 μg/kg subcutaneously, 120 minutes): 152.4 ± 1.5 mg/dL
ED50 ([4]; calculated on the 30 minute glucose measurements, 10 μg/kg taken as maximum, subcutaneous): 3.28 µg/kg
effect on blood glucose ([4]; subcutaneous, C57/Bl6 mice): able to increase blood glucose
